Laboratory results reported in patent US20170050957A1, “4-AMINO-6-(HETEROCYCLIC)PICOLINATES AND 6-AMINO-2-(HETEROCYCLIC)PYRIMIDINE-4-CARBOXYLATES AND THEIR USE AS HERBICIDES” (Dow AgroSciences LLC, priority 2013, published 2017).
Read-outs that look alike come from different tables or passages of the source.

Experiments:
[1] = system: Key Broadleaf Weed and Crop Species; assay: Post-emergent Test II herbicidal activity (Table 15); type: in vivo; conditions: post-emergence, 336 h, 14 d; for pest or weed control at 35 g/ha: 35 g ai/ha; for pest or weed control at 70 g/ha: 70 g ai/ha; for pest or weed control at 140 g/ha: 140 g ai/ha
Outline: (§1)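 Post-emergence spray; seedlings 7-21 d old, 1st-2nd true leaf; 187 L/ha; serial rates 1×-1/16×; solvent blank controls; subirrigated; visual % injury at 14 d.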

[2] = system: Key Grass and Sedge Weeds as well as Grass Crops; assay: Post-emergent Test II herbicidal activity (Table 16); type: in vivo; conditions: post-emergence, 336 h, 14 days after application; for pest or weed control at 35 g/ha: 35 g ai/ha; for pest or weed control at 70 g/ha: 70 g ai/ha; for pest or weed control at 140 g/ha: 140 g ai/ha
Outline: as §1

[3] = Abutilon theophrasti, velvetleaf (Abutilon theophrasti), read-out: Visual Growth Reduction (%) 14 Days After Application, ABUTH
[4] = Amaranthus retroflexus, redroot pigweed (Amaranthus retroflexus), read-out: Visual Growth Reduction (%) 14 Days After Application, AMARE
[5] = Brassica napus, oilseed rape, canola (Brassica napus), read-out: Visual Growth Reduction (%) 14 Days After Application, BRSNN
[6] = Chenopodium album, lambsquarters (Chenopodium album), read-out: Visual Growth Reduction (%) 14 Days After Application, CHEAL
[7] = Euphorbia heterophylla, wild poinsettia (Euphorbia heterophylla), read-out: Visual Growth Reduction (%) 14 Days After Application, EPHHL
[8] = Helianthus annuus, sunflower (Helianthus annuus), read-out: Visual Growth Reduction (%) 14 Days After Application, HELAN
[9] = Cyperus esculentus, yellow nutsedge (Cyperus esculentus), read-out: Visual Growth Reduction (%) 14 Days After Application CYPES
[10] = Echinochloa crus-galli, barnyardgrass (Echinochloa crus-galli), read-out: Visual Growth Reduction (%) 14 Days After Application ECHCG
[11] = Oryza sativa, rice (Oryza sativa), read-out: Visual Growth Reduction (%) 14 Days After Application ORYSA
[12] = Setaria faberi, giant foxtail (Setaria faberi), read-out: Visual Growth Reduction (%) 14 Days After Application SETFA
[13] = Triticum aestivum, wheat, spring (Triticum aestivum), read-out: Visual Growth Reduction (%) 14 Days After Application TRZAS
[14] = Zea mays, maize, corn (Zea mays), read-out: Visual Growth Reduction (%) 14 Days After Application ZEAMX

Row | SMILES | pest or weed control at 35 g/ha [1, 3] [%] | pest or weed control at 70 g/ha [1, 3] [%] | pest or weed control at 140 g/ha [1, 3] [%] | pest or weed control at 35 g/ha [1, 4] [%] | pest or weed control at 70 g/ha [1, 4] [%] | pest or weed control at 140 g/ha [1, 4] [%] | pest or weed control at 35 g/ha [1, 5] [%] | pest or weed control at 70 g/ha [1, 5] [%] | pest or weed control at 140 g/ha [1, 5] [%] | pest or weed control at 35 g/ha [1, 6] [%] | pest or weed control at 70 g/ha [1, 6] [%] | pest or weed control at 140 g/ha [1, 6] [%] | pest or weed control at 35 g/ha [1, 7] [%] | pest or weed control at 70 g/ha [1, 7] [%] | pest or weed control at 140 g/ha [1, 7] [%] | pest or weed control at 35 g/ha [1, 8] [%] | pest or weed control at 70 g/ha [1, 8] [%] | pest or weed control at 140 g/ha [1, 8] [%] | pest or weed control at 35 g/ha [2, 9] [%] | pest or weed control at 70 g/ha [2, 9] [%] | other results
1 | COC(=O)c1nc(-c2ccc3cn[nH]c3c2)c(F)c(N)c1Cl [Compound 4.05] | 0 to 29 | 0 to 29 | 45 to 59 | 0 to 29 | 95 to 100 | 95 to 100 | 0 to 29 | 0 to 29 | 45 to 59 | 85 to 94 | 85 to 94 | 95 to 100 | 60 to 74 | 95 to 100 | 95 to 100 | 60 to 74 | 60 to 74 | 95 to 100 | 0 to 29 | 0 to 29 | pest or weed control at 140 g/ha [2, 9]: 0 to 29%; pest or weed control at 140 g/ha [2, 10]: 85 to 94%; pest or weed control at 35 g/ha [2, 11]: 0 to 29%; pest or weed control at 70 g/ha [2, 11]: 0 to 29%; pest or weed control at 140 g/ha [2, 11]: 0 to 29%; pest or weed control at 140 g/ha [2, 12]: 95 to 100%; pest or weed control at 35 g/ha [2, 13]: 0 to 29%; pest or weed control at 70 g/ha [2, 13]: 0 to 29%; pest or weed control at 140 g/ha [2, 13]: 0 to 29%; pest or weed control at 35 g/ha [2, 14]: 0 to 29%; pest or weed control at 70 g/ha [2, 14]: 60 to 74%; pest or weed control at 140 g/ha [2, 14]: 60 to 74%; melting point: 185 to 187 °C
2 | Nc1c(F)c(-c2ccc3cn[nH]c3c2)nc(C(=O)O)c1Cl [Compound 4.06] | 0 to 29 | 0 to 29 | 0 to 29 | 75 to 84 | 95 to 100 | 95 to 100 | 60 to 74 | 75 to 84 | 85 to 94 | 0 to 29 | 45 to 59 | 95 to 100 | 45 to 59 | 60 to 74 | 85 to 94 | 45 to 59 | 60 to 74 | 75 to 84 | 0 to 29 | 0 to 29 | pest or weed control at 140 g/ha [2, 9]: 0 to 29%; pest or weed control at 35 g/ha [2, 10]: 0 to 29%; pest or weed control at 70 g/ha [2, 10]: 45 to 59%; pest or weed control at 140 g/ha [2, 10]: 75 to 84%; pest or weed control at 35 g/ha [2, 11]: 0 to 29%; pest or weed control at 70 g/ha [2, 11]: 0 to 29%; pest or weed control at 140 g/ha [2, 11]: 0 to 29%; pest or weed control at 35 g/ha [2, 12]: 0 to 29%; pest or weed control at 70 g/ha [2, 12]: 0 to 29%; pest or weed control at 140 g/ha [2, 12]: 45 to 59%; pest or weed control at 35 g/ha [2, 13]: 0 to 29%; pest or weed control at 70 g/ha [2, 13]: 0 to 29%; pest or weed control at 140 g/ha [2, 13]: 0 to 29%; pest or weed control at 35 g/ha [2, 14]: 0 to 29%; pest or weed control at 70 g/ha [2, 14]: 0 to 29%; pest or weed control at 140 g/ha [2, 14]: 0 to 29%; melting point: > 300 °C
3 | COC(=O)c1nc(-c2ccc3cn[nH]c3c2)cc(N)c1Cl [Compound 4.09] | 0 to 29 | 0 to 29 | 0 to 29 | 0 to 29 | 45 to 59 | 85 to 94 | 0 to 29 | 0 to 29 | 60 to 74 | 45 to 59 | 75 to 84 | 85 to 94 | 0 to 29 | 0 to 29 | 0 to 29 | 0 to 29 | 30 to 44 | 45 to 59 | 0 to 29 | 0 to 29 | pest or weed control at 140 g/ha [2, 9]: 0 to 29%; pest or weed control at 35 g/ha [2, 10]: 0 to 29%; pest or weed control at 70 g/ha [2, 10]: 0 to 29%; pest or weed control at 140 g/ha [2, 10]: 0 to 29%; pest or weed control at 35 g/ha [2, 11]: 0 to 29%; pest or weed control at 70 g/ha [2, 11]: 0 to 29%; pest or weed control at 140 g/ha [2, 11]: 0 to 29%; pest or weed control at 35 g/ha [2, 12]: 0 to 29%; pest or weed control at 70 g/ha [2, 12]: 0 to 29%; pest or weed control at 140 g/ha [2, 12]: 0 to 29%; pest or weed control at 35 g/ha [2, 13]: 0 to 29%; pest or weed control at 70 g/ha [2, 13]: 0 to 29%; pest or weed control at 140 g/ha [2, 13]: 0 to 29%; pest or weed control at 35 g/ha [2, 14]: 0 to 29%; pest or weed control at 70 g/ha [2, 14]: 0 to 29%; pest or weed control at 140 g/ha [2, 14]: 0 to 29%; melting point: 191 to 193 °C
